Laboratory results as given in patent US4177282A, “Hydantoin therapeutic agents” (priority 1978, dated 1979).
Counter-ions that a name gives are not always drawn. Each block holds one compound with its values, some of them ahead of it.

Key:
[1] = biological target: T1, partially purified aldose reductase enzyme obtained from calf lens (Bos taurus, UniProt P16116); assay: inhibition of isolated aldose reductase enzyme activity (procedure of S. Hayman et al., as modified by K. Sestanj et al.); assay type: biochemical; settings: for inhibition at 100 µM / inhibition at 10 µM / inhibition at 1 µM / inhibition at 0.1 µM / Percent Inhibition (%) of aldose reductase enzyme activity: calf lens enzyme; for inhibition at 100 µM / inhibition at 10 µM / inhibition at 1 µM / inhibition at 0.1 µM: read-out: Percent Inhibition (%) of aldose reductase enzyme activity
T1 construct: partially purified aldose reductase enzyme obtained from calf lens; from tissue; host or cells: calf lens
Procedure: (§1) The activity of the compounds of the present invention, as agents for the control of chronic diabetic complications, is determined by their ability to successfully pass one or more of the following standard biological and/or pharmacological tests, viz., (1) measuring their ability to inhibit the enzyme activity of isolated aldose reductase; (2) measuring their ability to reduce or inhibit sorbitol accumulation in the sciatic nerve of acutely streptozotocinized (i.e., diabetic) rats; (3) measuring their ability to reverse alredy-elevated sorbitol levels in the sciatic nerve and lens of chronic streptozotocin-induced diabetic rats; (4) measuring their ability to prevent or inhibit galactitol formation in the lens of acutely galactosemic rats, and (5) measuring their ability to delay cataract formation and reduce the severity of lens opacities in chronic galactosemic rats.
In every case, the substrate employed was partially purified aldose reductase enzyme obtained from calf lens.

[2] = test system: sorbitol accumulation in the sciatic nerve of streptozotocinized (i.e., diabetic) rats; assay: inhibition of sorbitol accumulation in the sciatic nerve of streptozotocinized (diabetic) rats; assay type: in vivo, rat; settings: measured at 27 hours, vs untreated
Procedure: as §1
The following spiro-hydantoin compounds of Preparations B and C and Examples I-II, respectively, were tested for their ability to reduce or inhibit sorbitol accumulation in the sciatic nerve of streptozotocinized (i.e., diabetic) rats by the procedure essentially described in U.S. Pat. No. 3,821,383. In the present study, the amount of sorbitol accumulation in the sciatic nerves was measured 27 hours after induction of diabetes. The compounds were administered orally at the dose levels indicated 4, 8 and 24 hours following the administration of streptozotocin. The results obtained in this manner are presented below in terms of percent inhibition (%) afforded by the test compound as compared to the case where no compound was administered (i.e., the untreated animal where sorbitol levels normally rise from approximately 50-100 mM/g. tissue to as high as 400 mM/g. tissue in the 27-hour test period): […]

[3] = test system: galactitol levels in the lens of galactosemic subjects; assay: lowering of galactitol levels in the lens of galactosemic subjects; assay type: in vivo, rat
Procedure: as §1

[4] = test system: sorbitol levels in diabetic rats; assay: control (inhibition) of formation of sorbitol levels in diabetic rats, oral; assay type: in vivo, rat; settings: 0.25 mg./kg. to 5.0 mg./kg.
From the text: As previously indicated, the dextrorotatory spiro-hydantoin compounds of this invention are all readily adapted to therapeutic use as aldose reductase inhibitors for the control of chronic diabetic complications, in view of their ability to reduce lens sorbitol levels in diabetic subjects to a statistically significant degree. […] The other compounds of this invention also cause similar results. Furthermore, the herein described compounds of this invention can be administered by either the oral or parenteral routes of administration, for the present purposes at hand, without causing any significant untoward pharmacological side reactions to occur in the subject to whom they are so administered. In general, these compounds are ordinarily administered in dosages ranging from about 0.05 mg. to about 5.0 mg. per kg. of body weight per day, although variations will necessarily occur depending upon the weight and condition of the subject being treated and the particular route of administration chosen.

[5] = test system: sorbitol levels in the sciatic nerve and lens of diabetic subjects; assay: lowering of sorbitol levels in the sciatic nerve and lens of diabetic subjects; assay type: in vivo, rat
Procedure: as §1

solubility in water = assay type: physicochemical; settings: amorphous powder, freeze-dried
[6] = 0.25 mg./kg. orally at 4, 8 and 24 hours after streptozotocin
[7] = 0.75 mg./kg. orally at 4, 8 and 24 hours after streptozotocin
[8] = 1.5 mg./kg. orally at 4, 8 and 24 hours after streptozotocin
[9] = 2.5 mg./kg. orally at 4, 8 and 24 hours after streptozotocin

- inhibition at 100 µM ([1]; 10^-4 M): 85%
- inhibition at 10 µM ([1]; 10^-5 M): 58%
- inhibition at 1 µM ([1]; 10^-6 M): 52%
- inhibition at 0.1 µM ([1]; 10^-7 M): 3%
Compound: O=C1NC(=O)C2(CCOc3ccc(F)cc32)N1 (racemic) [dl-Cpd. of Prep. B, dl-6-fluoro-spiro-[chroman-4,4'-imidazolidine]-2',5'-dione]
- Percent Inhibition (%) of sorbitol accumulation in the sciatic nerve [2, 6]: 19%
- Percent Inhibition (%) of sorbitol accumulation in the sciatic nerve [2, 7]: 45%
- Percent Inhibition (%) of sorbitol accumulation in the sciatic nerve [2, 8]: 72%

- Percent Inhibition (%) of aldose reductase enzyme activity ([1]; 10^-4 M): 88%
- Percent Inhibition (%) of aldose reductase enzyme activity ([1]; 10^-5 M): 63%
- Percent Inhibition (%) of aldose reductase enzyme activity ([1]; 10^-6 M): 23%
- Percent Inhibition (%) of aldose reductase enzyme activity ([1]; 10^-7 M): -4%
Compound: O=C1NC(=O)C2(CCOc3ccc(F)cc32)N1 (single isomer, unassigned) [1-Isomer of Ex. I, l-6-fluoro-spiro-[chroman-4,4'-imidazolidine]-2',5'-dione]
- Percent Inhibition (%) of sorbitol accumulation in the sciatic nerve [2, 7]: 19%
- Percent Inhibition (%) of sorbitol accumulation in the sciatic nerve [2, 9]: 6%
- Percent Inhibition (%) of sorbitol accumulation in the sciatic nerve ([2]; 5.0 mg./kg. orally at 4, 8 and 24 hours after streptozotocin): 22%

- aldose reductase inhibitory activity (in words) [1]: extremely potent
- inhibition at 100 µM ([1]; 10^-4 M): 100%
- Percent Inhibition (%) of aldose reductase enzyme activity ([1]; 10^-6 M): 98%
- Percent Inhibition (%) of aldose reductase enzyme activity ([1]; 10^-7 M): 39%
Compound: O=C1NC(=O)C2(CCOc3ccc(F)cc32)N1 (single isomer, unassigned) [d-Isomer of Ex. I, d-6-fluoro-spiro-[chroman-4,4'-imidazolidine]-2',5'-dione]
- lowering galactitol levels in the lens (in words) [3]: to a very significantly high degree
- control (i.e., inhibit) the formation of sorbitol levels (in words) [4]: to a significantly high degree
- Percent Inhibition (%) of sorbitol accumulation in the sciatic nerve [2, 6]: 47%
- Percent Inhibition (%) of sorbitol accumulation in the sciatic nerve [2, 7]: 78%
- lowering sorbitol levels in the sciatic nerve and lens (in words) [5]: equally effective in lowering sorbitol levels in the sciatic nerve and lens of diabetic subjects

- solubility in water (in words) (solubility in water): freely soluble in water
Compound: O=C1NC(=O)C2(CCOc3ccc(F)cc32)N1 (single isomer, unassigned) [sodium salt of d-6-fluoro-spiro-[chroman-4,4'-imidazolidine]-2',5'-dione]

The remaining lines, values behind:

Compound: O=C1NC(=O)C2(CCSc3ccc(F)cc32)N1 (racemic) [dl-Cpd. of Prep. C, dl-6'-fluoro-spiro-[imidazolidine-4,4'-thiochroman]-2,5-dione]
- inhibition at 100 µM ([1]; 10^-4 M): 81%
- inhibition at 10 µM ([1]; 10^-5 M): 77%
- inhibition at 1 µM ([1]; 10^-6 M): 66%
- inhibition at 0.1 µM ([1]; 10^-7 M): 38%
- Percent Inhibition (%) of sorbitol accumulation in the sciatic nerve [2, 7]: 13%
- Percent Inhibition (%) of sorbitol accumulation in the sciatic nerve [2, 8]: 45%
- Percent Inhibition (%) of sorbitol accumulation in the sciatic nerve [2, 9]: 74%

Compound: O=C1NC(=O)C2(CCSc3ccc(F)cc32)N1 (single isomer, unassigned) [1-Isomer of Ex. II, l-6'-fluoro-spiro-[imidazolidine-4,4'-thiochroman]-2,5-dione]
- Percent Inhibition (%) of aldose reductase enzyme activity ([1]; 10^-4 M): 87%
- Percent Inhibition (%) of aldose reductase enzyme activity ([1]; 10^-5 M): 65%
- Percent Inhibition (%) of aldose reductase enzyme activity ([1]; 10^-6 M): 11%
- Percent Inhibition (%) of aldose reductase enzyme activity ([1]; 10^-7 M): 10%

Compound: O=C1NC(=O)C2(CCSc3ccc(F)cc32)N1 (single isomer, unassigned) [d-Isomer of Ex. II, d-6'-fluoro-spiro-[imidazolidine-4,4'-thiochroman]-2,5-dione]
- aldose reductase inhibitory activity (in words) [1]: extremely potent
- inhibition at 100 µM ([1]; 10^-4 M): 89%
- inhibition at 10 µM ([1]; 10^-5 M): 80%
- Percent Inhibition (%) of aldose reductase enzyme activity ([1]; 10^-6 M): 76%
- Percent Inhibition (%) of aldose reductase enzyme activity ([1]; 10^-7 M): 74%
- lowering galactitol levels in the lens (in words) [3]: to a very significantly high degree
- Percent Inhibition (%) of sorbitol accumulation in the sciatic nerve [2, 7]: 55%
- lowering sorbitol levels in the sciatic nerve and lens (in words) [5]: equally effective in lowering sorbitol levels in the sciatic nerve and lens of diabetic subjects
